According to patent US20020160988A1 (priority 2001, published 2002):
Read-outs that look alike come from different tables or passages of the source.

How the values were obtained:
[1] = test system: mice; conditions: mouse, in vivo
[2] = in vivo; conditions: mouse
[3] = test system: carrageenan-induced rat paw edema; conditions: in vivo
[4] = test system: CAR-induced brain edema; set-up: species or system rats; conditions: rat, in vivo
[5] = test system: mice; conditions: mouse, in vivo; remark: listed apart in the source
[6] = test system: whole blood ChE; set-up: species or system mice; conditions: mouse, in vivo, 0.13 mg/kg
[7] = molecular target: T1, human plasma butyrylcholinesterase (HuBChE) (Homo sapiens, UniProt P06276); conditions: for t½(ks): human, plasma
[8] = molecular target: T2, recombinant human acetylcholineesterase (rHuAChE) (Homo sapiens, UniProt P22303); conditions: for t½(ks): human, recombinant enzyme
[9] = molecular target: T3, fetal bovine serum-AChE (FBS-AChE) (Bos taurus, UniProt P23795); experiment: biochemical
T3 sequence (P23795 31-613): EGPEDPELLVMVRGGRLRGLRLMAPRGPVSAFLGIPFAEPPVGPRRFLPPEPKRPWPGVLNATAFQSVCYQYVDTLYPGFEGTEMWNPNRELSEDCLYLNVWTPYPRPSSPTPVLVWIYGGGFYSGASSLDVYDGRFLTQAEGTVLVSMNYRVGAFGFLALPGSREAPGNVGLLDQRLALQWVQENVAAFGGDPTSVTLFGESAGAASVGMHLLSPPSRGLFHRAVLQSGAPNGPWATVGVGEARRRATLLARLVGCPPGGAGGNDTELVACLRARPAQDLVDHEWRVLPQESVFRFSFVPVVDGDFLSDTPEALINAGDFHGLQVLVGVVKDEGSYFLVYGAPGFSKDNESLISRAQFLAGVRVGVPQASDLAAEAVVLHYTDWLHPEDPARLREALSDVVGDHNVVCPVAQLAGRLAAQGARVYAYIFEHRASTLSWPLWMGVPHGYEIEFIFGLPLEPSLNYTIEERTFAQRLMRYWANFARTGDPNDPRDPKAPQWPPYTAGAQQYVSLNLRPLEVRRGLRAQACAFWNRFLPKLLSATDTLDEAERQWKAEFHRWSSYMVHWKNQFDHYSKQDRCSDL

[10] = molecular target: T3, fetal bovine serum-AChE (FBS-AChE); conditions: for t½(ks): bovine, serum
[11] = molecular target: COX II (sheep placenta) (Ovis aries, UniProt P79208); experiment: biochemical; conditions: read-out: % Inhibition COX II
[12] = molecular target: COX I (bovine seminal vesicles) (Bos taurus, UniProt O62664); experiment: biochemical; conditions: read-out: % Inhibition COX I
[13] = molecular target: T2, recombinant human acetylcholineesterase (rHuAChE); experiment: biochemical
[14] = molecular target: T1, human plasma butyrylcholinesterase (HuBChE); experiment: biochemical
[15] = physchem; conditions: pH 7.4

T1 sequence (P06276 29-602): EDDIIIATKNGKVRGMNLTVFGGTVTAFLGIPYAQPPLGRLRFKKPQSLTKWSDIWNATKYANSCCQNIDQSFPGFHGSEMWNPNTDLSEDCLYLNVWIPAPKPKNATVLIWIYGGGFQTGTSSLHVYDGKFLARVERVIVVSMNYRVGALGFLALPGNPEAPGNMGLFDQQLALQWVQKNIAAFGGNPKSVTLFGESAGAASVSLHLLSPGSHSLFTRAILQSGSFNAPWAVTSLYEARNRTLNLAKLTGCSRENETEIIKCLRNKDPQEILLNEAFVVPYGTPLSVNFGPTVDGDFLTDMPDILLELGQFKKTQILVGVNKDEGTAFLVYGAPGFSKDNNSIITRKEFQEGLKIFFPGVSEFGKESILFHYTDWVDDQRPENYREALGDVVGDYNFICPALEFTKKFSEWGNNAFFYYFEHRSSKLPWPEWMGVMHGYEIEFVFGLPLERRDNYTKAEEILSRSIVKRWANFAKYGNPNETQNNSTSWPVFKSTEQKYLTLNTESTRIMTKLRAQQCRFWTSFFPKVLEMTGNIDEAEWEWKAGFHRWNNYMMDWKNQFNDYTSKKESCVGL
T2 sequence (P22303 32-614): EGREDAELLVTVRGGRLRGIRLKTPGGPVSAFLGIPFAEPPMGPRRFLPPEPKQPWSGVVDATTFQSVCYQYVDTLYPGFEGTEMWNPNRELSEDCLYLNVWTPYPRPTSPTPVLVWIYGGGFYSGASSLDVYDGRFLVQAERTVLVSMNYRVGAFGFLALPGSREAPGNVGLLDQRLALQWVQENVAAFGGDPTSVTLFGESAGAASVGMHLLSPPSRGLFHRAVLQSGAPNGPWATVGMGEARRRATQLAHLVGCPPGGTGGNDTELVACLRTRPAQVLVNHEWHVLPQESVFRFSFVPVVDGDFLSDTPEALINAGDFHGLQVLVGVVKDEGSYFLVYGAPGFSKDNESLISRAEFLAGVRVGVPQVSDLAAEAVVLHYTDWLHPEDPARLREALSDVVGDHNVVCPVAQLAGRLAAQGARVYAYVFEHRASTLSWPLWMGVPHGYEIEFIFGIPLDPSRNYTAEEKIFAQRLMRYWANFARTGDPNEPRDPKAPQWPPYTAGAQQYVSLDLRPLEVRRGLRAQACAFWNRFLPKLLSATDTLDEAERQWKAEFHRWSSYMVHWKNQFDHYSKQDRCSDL
Chain of COX I (bovine seminal vesicles) (O62664 25-600): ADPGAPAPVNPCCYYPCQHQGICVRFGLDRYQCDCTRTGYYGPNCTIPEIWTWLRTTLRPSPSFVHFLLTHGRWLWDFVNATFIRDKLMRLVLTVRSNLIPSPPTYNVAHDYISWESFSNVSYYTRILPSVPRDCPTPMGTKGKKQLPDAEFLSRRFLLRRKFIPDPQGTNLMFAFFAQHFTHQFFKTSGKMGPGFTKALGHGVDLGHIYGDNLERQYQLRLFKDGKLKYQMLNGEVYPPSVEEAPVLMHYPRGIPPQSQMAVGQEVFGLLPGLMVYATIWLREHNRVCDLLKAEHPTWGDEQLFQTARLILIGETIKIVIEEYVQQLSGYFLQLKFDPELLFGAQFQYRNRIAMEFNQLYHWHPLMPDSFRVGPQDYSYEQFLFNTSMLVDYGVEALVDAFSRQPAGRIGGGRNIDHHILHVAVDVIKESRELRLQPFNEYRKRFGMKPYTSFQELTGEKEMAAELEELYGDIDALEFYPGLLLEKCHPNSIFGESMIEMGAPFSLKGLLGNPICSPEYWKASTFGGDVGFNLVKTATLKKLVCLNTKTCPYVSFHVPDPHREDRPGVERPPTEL
Chain of COX II (sheep placenta) (P79208 17-603): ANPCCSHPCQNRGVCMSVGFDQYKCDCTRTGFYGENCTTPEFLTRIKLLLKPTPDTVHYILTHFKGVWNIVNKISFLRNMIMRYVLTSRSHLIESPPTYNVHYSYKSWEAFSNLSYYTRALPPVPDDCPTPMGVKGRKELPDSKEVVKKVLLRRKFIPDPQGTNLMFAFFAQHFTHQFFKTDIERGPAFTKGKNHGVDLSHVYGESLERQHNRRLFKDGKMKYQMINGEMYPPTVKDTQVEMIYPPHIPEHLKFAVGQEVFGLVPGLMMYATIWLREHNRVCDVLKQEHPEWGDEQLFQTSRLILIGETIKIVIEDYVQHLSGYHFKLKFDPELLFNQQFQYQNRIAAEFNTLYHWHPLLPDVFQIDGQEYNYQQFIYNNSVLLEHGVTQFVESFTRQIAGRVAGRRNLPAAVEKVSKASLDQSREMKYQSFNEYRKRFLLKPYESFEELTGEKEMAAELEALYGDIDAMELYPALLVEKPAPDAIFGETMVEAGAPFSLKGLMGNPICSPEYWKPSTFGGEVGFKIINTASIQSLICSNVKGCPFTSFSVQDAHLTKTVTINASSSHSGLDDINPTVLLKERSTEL

CNC1(C)C2CCC(C2)C1(C)C (stereo not shown) [mecamylamine]
time of maximal IBU-PO-induced hypothermia after pretreatment [1]: 60 min

CC(C)Cc1ccc(C(C)C(=O)O)cc1 (stereo not shown) [IBU, ibuprofen]
LD50 ([2]; im): > 100 mg/kg | edema level (% EDEMA) after treatment [3]: about 30% | brain % water content [4]: 83%

CN1[C@@H]2CC[C@H]1C[C@@H](OC(=O)C(CO)c1ccccc1)C2 (stereo partly shown) [atropine]
effect of pretreatment on IBU-PO-induced hypothermia [1]: partially reverses the hypothermia

CC(=O)Oc1ccccc1C(=O)O [ASPIRIN, aspirin]
LD50 ([2]; ip): > 100 mg/kg

Nc1c2c(nc3ccccc13)CCCC2 [TACRINE]
Therapeutic Index (TI = LD50/ED50) [5]: 3.5

CN(C)C(=O)Oc1ccc[n+](C)c1 [PYR, pyridostigmine]
LD50 ([2]; im): 2.1 mg/kg | LD50 ([2]; ip): 5.1 mg/kg | ChE inhibition [6]: less than 20% | duration time of ChE inhibition [6]: 1 to 1.5 h | K′ [7]: 0.08 min⁻¹ | ki (bimolecular rate constant) [7]: 7.3 × 10^4 M^−1m^−1 | ks × 10^3 [7]: 7.1 minutes^−1 | t½(ks) [7]: 1.62 h | K′ [8]: 0.40 min⁻¹ | ki (bimolecular rate constant) [8]: 2.7 × 10^5 M^−1m^−1 | ks × 10^3 [8]: 9.2 minutes^−1 | t½(ks) [8]: 1.25 h | Ki [9]: 1.2 µM | K′ [10]: 0.31 min⁻¹ | ki (bimolecular rate constant) [10]: 2.5 × 10^5 M^−1m^−1 | ks × 10^3 [10]: 10 minutes^−1 | t½(ks) [10]: 1.15 h

CCN(C)C(=O)Oc1cccc([C@H](C)N(C)C)c1 [EXELON]
Therapeutic Index (TI = LD50/ED50) [5]: 12.5

COc1ccc2cc([C@H](C)C(=O)O)ccc2c1 [NAPRO, naproxen]
inhibition at 1 µM [11]: 85% | inhibition at 1 µM [12]: 37%

CNC(=O)Oc1ccc2c(c1)[C@]1(C)CCN(C)[C@@H]1N2C [physostigmine]
Therapeutic Index (TI = LD50/ED50) [5]: 3.4

COC(=O)C1=CCCN(C)C1 [Arecoline, arecoline]
mode of AChE inhibition [8]: reversible inhibition of AChE | IC50 [13]: > 100 µM

COc1ccc2c(c1)c(CC(=O)O)c(C)n2C(=O)c1ccc(Cl)cc1 [INDO, indomethacin]
LD50 ([2]; ip): 12.4 mg/kg | edema level (% EDEMA) after treatment [3]: about 30%

COC(=O)c1cccnc1 [MN, methyl nicotinate]
mode of AChE inhibition [8]: reversible inhibition of AChE | IC50 [13]: > 100 µM

CC(C)Cc1ccc(C(C)C(=O)OCCCCCCCCN2CCC=C(OC(=O)N(C)C)C2)cc1 (stereo not shown) [IBU-4H-PO]
LD50 ([2]; ip): 54.2 mg/kg | K′ [7]: 0.19 min⁻¹ | ki (bimolecular rate constant) [7]: 1.2 × 10^5 M^−1m^−1 | ks × 10^3 [7]: 0.9 minutes^−1 | t½(ks) [7]: 13.2 h | K′ [8]: 0.23 min⁻¹ | ki (bimolecular rate constant) [8]: 1.9 × 10^4 M^−1m^−1 | ks × 10^3 [8]: 6.9 minutes^−1 | t½(ks) [8]: 1.67 h | Ki [9]: 66 µM | Ki [13]: 12 µM | K′ [10]: 1.9 min⁻¹ | ki (bimolecular rate constant) [10]: 2.8 × 10^4 M^−1m^−1 | ks × 10^3 [10]: 20 minutes^−1 | t½(ks) [10]: 0.575 h | Ki [14]: 1.6 µM | logD [15]: 2

3-Dimethylcarbamoyl-1-{7-[2-(4-isobutyl-phenyl)-propionylamino]-heptyl}-pyridinium bromide [IBU-Am-PH]
Ki [8]: 0.047 µM | K′ [8]: 0.13 min⁻¹ | ki (bimolecular rate constant) [8]: 2.8 × 10^6 M^−1m^−1 | ks × 10^3 [8]: 27 minutes^−1
